Reference: patent US11584742B2 (MASARYKOVA UNIVERZITA, priority 2018, dated 2023)

Experiments:
[1] = target: T1, MRE11 (Homo sapiens, UniProt P49959); test: HTS nuclease assay (cleavage of CY5/BBQ-quenched 5' overhang DNA substrate); assay type: biochemical; settings: in vitro HTS nuclease assay; 18 nM MRE11, 40 nM DNA substrate; analysis at t=4 h
T1 sequence (P49959 1-708): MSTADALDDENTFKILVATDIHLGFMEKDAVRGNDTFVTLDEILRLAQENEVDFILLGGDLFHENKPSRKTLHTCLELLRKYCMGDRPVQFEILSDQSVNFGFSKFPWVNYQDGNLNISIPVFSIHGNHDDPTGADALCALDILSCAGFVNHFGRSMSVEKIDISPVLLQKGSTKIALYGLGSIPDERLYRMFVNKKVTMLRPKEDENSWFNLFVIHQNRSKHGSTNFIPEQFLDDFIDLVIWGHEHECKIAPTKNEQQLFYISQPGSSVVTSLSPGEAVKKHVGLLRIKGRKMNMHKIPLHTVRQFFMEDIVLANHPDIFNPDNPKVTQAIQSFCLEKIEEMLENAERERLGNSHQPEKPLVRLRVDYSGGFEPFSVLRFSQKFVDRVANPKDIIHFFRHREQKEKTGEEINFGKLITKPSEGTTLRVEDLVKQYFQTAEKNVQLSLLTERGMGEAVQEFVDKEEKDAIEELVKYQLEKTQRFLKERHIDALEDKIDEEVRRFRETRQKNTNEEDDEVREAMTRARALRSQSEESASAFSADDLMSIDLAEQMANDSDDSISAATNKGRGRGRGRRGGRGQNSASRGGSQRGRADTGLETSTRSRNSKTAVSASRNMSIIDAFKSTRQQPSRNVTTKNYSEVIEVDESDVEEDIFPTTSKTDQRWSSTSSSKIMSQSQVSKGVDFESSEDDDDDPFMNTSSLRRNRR
Experimental: DNA Substrate Preparation
The DNA substrate is prepared by mixing the oligonucleotides listed below in a 1:1 ratio to reach a final concentration of 6 μM in a buffer containing 50 mM Tris pH 7.5, 100 mM NaCl and 8 mM MgCl2.
This substrate is a 5′ overhang, which is a preferred substrate of MRE11. […] The fluorescence increases upon substrate cleavage by MRE11, when separation of the two labels occur.
The conditions of the assay are as follows:
Total reaction volume: 5 μL
DNA substrate concentration in the reaction: 40 nM
Inhibitor concentration range tested: 7 nM-50 μM
Each plate contains a series of high and low signal control wells, where no compound is added:
High signal: MRE11+DNA substrate
Low signal: DNA substrate only
These are used during data evaluation.
Two extra assay controls:
1) To check whether unwinding of DNA by the compounds alone occurs.
The DNA substrate [CY5+BBQ(650)] is mixed with the compounds with no protein present.
The CY5 single stranded oligo is mixed with the compounds with no protein present.
The layout of the plates is created by the in-house software (CZ-Openscreen Prague) and this information is transferred to the robotic HTS station.
The reaction is started by the addition of DNA and the reaction time is counted from that moment, including a 15 min delay. Ten timepoints are measured:
The assay data analysis was performed at t=4 h. This corresponds to the time when the reaction is close to its maximum.
The data analysis was performed using the in-house software to obtain IC50 for each compound.

[2] = test system: DR-GFP U2OS cells; test: HR assay (GFP fluorescence after I-SceI transfection, flow cytometry); assay type: cell-based; settings: Homo sapiens, inhibitor at 25 μM, 72 hours after transfection
Experimental: DR-GFP U2OS cells (Methods in Molecular Biology 2012, 920, 379.) were transfected with 2.5 μg of I-SceI-expressing pCAGGS vector and treated with the inhibitors at 25 μM concentration. 72 hours after the transfection, the cells were trypsinized and resuspended in 3% BSA in PBS. GFP fluorescence detection was carried out using a BD FACSVerse flow cytometer and data analyzed with FlowJo software.

IC50 [1]	Compound	inhibition at 25 µM [2]
< 2000 nM	N#CC(C(=O)Nc1nc(-c2ccccc2)cs1)=C(c1ccccc1)c1ccc(O)c(O)c1 (mixture of isomers) [Preparative Example 190, (E/Z)-2-cyano-3-(3,4-dihydroxyphenyl)-3-phenyl-N-(4-phenylthiazol-2-yl)acrylamide]	> 75%
10000 to 90000 nM	N#CC(=Cc1c[nH]cn1)C(=O)Nc1nc(-c2ccccc2)cs1 (racemic) [Preparative Example 214, (E)- and (Z)-2-cyano-3-(1H-imidazol-4-yl)-N-(4-phenylthiazol-2-yl)acrylamide]	< 50%
< 2000 nM	COc1ccc(-c2csc(NC(=O)/C(C#N)=C/c3ccc(O)c(O)c3)n2)cc1 [Preparative Example 162, (E)-2-cyano-3-(3,4-dihydroxyphenyl)-N-(4-(4-methoxyphenyl)thiazol-2-yl)acrylamide]	> 75%
< 2000 nM	N#C/C(=C\c1ccc(O)c(O)c1)C(=O)Nc1nc(-c2ccc3ccccc3c2)cs1 [Preparative Example 163, (E)-2-cyano-3-(3,4-dihydroxyphenyl)-N-(4-(naphthalen-2-yl)thiazol-2-yl)acrylamide]	> 75%
2000 to 10000 nM	N#C/C(=C\c1ccc(O)c(O)c1)C(=O)Nc1nc(-c2ccc(-c3ccccc3)cc2)cs1 [Preparative Example 164, (E)-N-(4-([1,1′-biphenyl]-4-yl)thiazol-2-yl)-2-cyano-3-(3,4-dihydroxyphenyl)acrylamide]	> 75%
< 2000 nM	N#C/C(=C\c1cc(Cl)c(O)c(Cl)c1)C(=O)Nc1nc(-c2ccc(Br)cc2)cs1 [Preparative Example 165, (E)-N-(4-(4-bromophenyl)thiazol-2-yl)-2-cyano-3-(3,5-dichloro-4-hydroxyphenyl)acrylamide]	50 to 75%
< 2000 nM	COc1ccc(-c2csc(NC(=O)/C(C#N)=C/c3ccc(O)c(O)c3)n2)cc1O [Preparative Example 166, (E)-2-cyano-3-(3,4-dihydroxyphenyl)-N-(4-(3-hydroxy-4-methoxyphenyl)thiazol-2-yl)acrylamide]	> 75%
2000 to 10000 nM	CC(C)(O)c1csc(NC(=O)/C(C#N)=C/c2ccc(O)c(O)c2)n1 [Preparative Example 167, (E)-2-cyano-3-(3,4-dihydroxyphenyl)-N-(4-(2-hydroxypropan-2-yl)thiazol-2-yl)acrylamide]	< 50%
< 2000 nM	Cc1ccc(-c2csc(NC(=O)/C(C#N)=C/c3cc(Cl)c(O)c(Cl)c3)n2)cc1 [Preparative Example 168]	> 75%
< 2000 nM	N#C/C(=C\c1ccc(O)c(O)c1)C(=O)Nc1nc(-c2cccc(Br)c2)cs1 [Preparative Example 169, (E)-N-(4-(3-bromophenyl)thiazol-2-yl)-2-cyano-3-(3,4-dihydroxyphenyl)acrylamide]	> 75%
< 2000 nM	N#C/C(=C\c1ccc(O)c(O)c1)C(=O)Nc1nc(-c2ccccc2Br)cs1 [Preparative Example 170, (E)-N-(4-(2-bromophenyl)thiazol-2-yl)-2-cyano-3-(3,4-dihydroxyphenyl)acrylamide]	50 to 75%
2000 to 10000 nM	N#C/C(=C\c1ccc(O)c(O)c1)C(=O)Nc1nc(-c2cccc(OC(F)(F)F)c2)cs1 [Preparative Example 171, (E)-2-cyano-3-(3,4-dihydroxyphenyl)-N-(4-(3-(trifluoromethoxy)phenyl)thiazol-2-yl)acrylamide]	50 to 75%
2000 to 10000 nM	N#C/C(=C\c1ccc(O)c(O)c1)C(=O)Nc1nc(-c2ccc(Oc3ccccc3)cc2)cs1 [Preparative Example 172, (E)-2-cyano-3-(3,4-dihydroxyphenyl)-N-(4-(4-phenoxyphenyl)thiazol-2-yl)acrylamide]	> 75%
< 2000 nM	N#C/C(=C\c1ccc(O)c(O)c1)C(=O)Nc1nc(-c2cc3ccccc3o2)cs1 [Preparative Example 173, (E)-N-(4-(benzofuran-2-yl)thiazol-2-yl)-2-cyano-3-(3,4-dihydroxyphenyl)acrylamide]	> 75%
2000 to 10000 nM	N#C/C(=C\c1ccc(O)c(O)c1)C(=O)Nc1nc(C23CC4CC(CC(C4)C2)C3)cs1 [Preparative Example 174, (E)-N-(4-((1S,3s)-adamantan-1-yl)thiazol-2-yl)-2-cyano-3-(3,4-dihydroxyphenyl)acrylamide]	50 to 75%
2000 to 10000 nM	N#C/C(=C\c1ccc(O)c(O)c1)C(=O)Nc1nc(-c2ccc(OC(F)(F)F)cc2)c(C2CCCCC2)s1 [Preparative Example 175, (E)-2-cyano-N-(5-cyclohexyl-4-(4-(trifluoromethoxy)phenyl)thiazol-2-yl)-3-(3,4-dihydroxyphenyl)acrylamide]	> 75%
< 2000 nM	N#C/C(=C\c1ccc(O)c(O)c1)C(=O)Nc1nc(-c2ccccc2)c(-c2ccccc2)s1 [Preparative Example 176, (E)-2-cyano-3-(3,4-dihydroxyphenyl)-N-(4,5-diphenylthiazol-2-yl)acrylamide]	> 75%
–	Cc1cc(/C=C(\C#N)C(=O)Nc2nc(-c3ccc(OC(F)(F)F)cc3)cs2)cc(C)c1O [Preparative Example 177, (E)-2-cyano-3-(3,5-dimethyl-4-hydroxyphenyl)-N-(4-(4-(trifluoromethoxy)phenyl)thiazol-2-yl)acrylamide]	> 75%
< 2000 nM	N#C/C(=C\c1ccc(O)c(O)c1)C(=O)Nc1nc(-c2ccc(N3CCOCC3)cc2)cs1 [Preparative Example 178]	50 to 75%
< 2000 nM	N#C/C(=C\c1ccc(O)c(O)c1)C(=O)Nc1nc(-c2ccc(C(F)(F)F)cn2)cs1 [Preparative Example 179, (E)-2-cyano-3-(3,4-dihydroxyphenyl)-N-(4-(5-(trifluoromethyl)pyridin-2-yl)thiazol-2-yl)acrylamide]	> 75%
–	Cc1cc(/C=C(\C#N)C(=O)Nc2nc(-c3ccccc3)cs2)ccc1O [Preparative Example 217, (E)-2-cyano-3-(4-hydroxy-3-methylphenyl)-N-(4-phenylthiazol-2-yl)acrylamide]	50 to 75%
–	N#C/C(=C\c1ccc(O)cc1O)C(=O)Nc1nc(-c2ccccc2)cs1 [Preparative Example 218, (E)-2-cyano-3-(2,4-dihydroxyphenyl)-N-(4-phenylthiazol-2-yl)acrylamide]	50 to 75%
–	CC(C)(C)c1cc(/C=C(\C#N)C(=O)Nc2nc(-c3ccc(OC(F)(F)F)cc3)cs2)cc(C(C)(C)C)c1O [Preparative Example 221]	< 50%
–	Cc1cc(/C=C(\C#N)C(=O)Nc2nc(-c3ccccc3)cs2)cc(C(C)(C)C)c1O [Preparative Example 234, (E)-3-(3-(tert-butyl)-4-hydroxy-5-methylphenyl)-2-cyano-N-(4-phenylthiazol-2-yl)acrylamide]	> 75%
–	CC(C)(C)c1cc(/C=C(\C#N)C(=O)Nc2nc(-c3ccccc3)cs2)ccc1O [Preparative Example 235, (E)-3-(3-(tert-butyl)-4-hydroxyphenyl)-2-cyano-N-(4-phenylthiazol-2-yl)acrylamide]	> 75%
–	CC(C)c1cc(/C=C(\C#N)C(=O)Nc2nc(-c3ccccc3)cs2)cc(C(C)C)c1O [Preparative Example 237, (E)-2-cyano-3-(4-hydroxy-3,5-diisopropylphenyl)-N-(4-phenylthiazol-2-yl)acrylamide]	> 75%
–	CC(C)(C)c1cc(/C=C(\C#N)C(=O)Nc2nc(-c3ccccc3)cs2)cc(C(C)(C)C)n1 [Preparative Example 240, (E)-2-cyano-3-(2,6-di-tert-butylpyridin-4-yl)-N-(4-phenylthiazol-2-yl)acrylamide]	> 75%
